Columns and labels:
Beta-secretase 1 [1] = target: T1, Beta-secretase 1 (Homo sapiens, UniProt P56817); experiment: Inhibition of BACE1 at 25 uM by FRET assay
Beta-secretase 1 [2] = target: T1, Beta-secretase 1; experiment: Inhibition of BACE1 at 100 uM by FRET assay
Beta-secretase 1 [3] = target: T1, Beta-secretase 1; experiment: Inhibition of BACE1 at 50 uM by FRET assay

T1 sequence (P56817 whole entry): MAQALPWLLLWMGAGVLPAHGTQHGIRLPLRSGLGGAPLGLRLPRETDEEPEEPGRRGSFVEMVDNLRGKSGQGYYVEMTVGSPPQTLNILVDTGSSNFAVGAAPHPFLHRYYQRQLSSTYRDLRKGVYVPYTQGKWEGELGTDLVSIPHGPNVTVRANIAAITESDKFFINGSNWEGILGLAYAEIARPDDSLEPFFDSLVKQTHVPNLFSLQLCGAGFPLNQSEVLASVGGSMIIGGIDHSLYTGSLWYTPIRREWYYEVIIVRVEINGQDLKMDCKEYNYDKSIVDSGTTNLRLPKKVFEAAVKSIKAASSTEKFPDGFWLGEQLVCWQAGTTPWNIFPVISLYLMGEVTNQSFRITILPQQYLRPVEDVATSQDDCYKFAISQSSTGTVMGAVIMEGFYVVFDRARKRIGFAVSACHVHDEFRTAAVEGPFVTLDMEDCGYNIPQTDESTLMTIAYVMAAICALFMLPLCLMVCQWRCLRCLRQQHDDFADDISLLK

SMILES	inhibition (Beta-secretase 1 [1]) [%]	inhibition (Beta-secretase 1 [2]) [%]	inhibition (Beta-secretase 1 [3]) [%]
CCc1ccc(SCC(O)Cn2c(-c3ccccc3)cc3ccccc32)cc1 (stereo unspecified)	42	79	78
OC(CSCCCc1ccccc1)Cn1c2c(c3ccccc31)CCC2 (stereo unspecified)	53	96	81
Cc1ccccc1SCC(O)COc1ccc(-c2ccccc2)cc1 (stereo unspecified)		74	
Cc1ccc(SCC(O)CN(Cc2ccccc2)Cc2ccccc2)cc1 (stereo unspecified)		7	
COc1ccc(SCC(O)COc2ccc(Cc3ccccc3)cc2)cc1 (stereo unspecified)		48	
OC(CSc1ccc2ccccc2c1)CN(Cc1ccccc1)Cc1ccccc1 (stereo unspecified)		19	
Oc1ccccc1SCC(O)CN1CCC(C(O)(c2ccccc2)c2ccccc2)CC1 (stereo unspecified)		3	
Cc1c(C)n(CC(O)CSc2ccc3ccccc3c2)c2ccccc12 (stereo unspecified)		87	
CCc1ccc(SCC(O)CN2CCC(C(O)(c3ccccc3)c3ccccc3)CC2)cc1 (stereo unspecified)		1	
OC(CSc1nnnn1-c1ccccc1)Cn1c(-c2ccccc2)cc2ccccc21 (stereo unspecified)		53	
OC(CSc1ccc(F)cc1)Cn1ccc2ccccc21 (stereo unspecified)		54	
OC(CSc1ccccc1F)CN1CCC(C(O)(c2ccccc2)c2ccccc2)CC1 (stereo unspecified)		8	
Oc1ccccc1SCC(O)CN(Cc1ccccc1)Cc1ccccc1 (stereo unspecified)		2	
COc1ccc(SCC(O)CN(Cc2ccccc2)Cc2ccccc2)cc1 (stereo unspecified)		10	
COc1ccc(SCC(O)Cn2c3ccccc3c3ccccc32)cc1 (stereo unspecified)	37	88	72
Cc1c(C)n(CC(O)CSc2cccc(N)c2)c2ccccc12 (stereo unspecified)		55	
COc1ccc(SCC(O)Cn2c3c(c4ccccc42)CCCC3)c(OC)c1 (stereo unspecified)		74	
CCc1ccc(SCC(O)CN2CCc3cc(OC)c(OC)cc3C2c2ccccc2)cc1 (stereo unspecified)		21	
Cc1c(C)n(CC(O)CSc2ccccc2F)c2ccccc12 (stereo unspecified)		56	
OC(CSc1ccccc1)CN1CCCCCC1 (stereo unspecified)		2	
Oc1ccccc1SCC(O)Cn1ccc2ccccc21 (stereo unspecified)		24	
COc1ccc(SCC(O)CN2CCC(C(O)(c3ccccc3)c3ccccc3)CC2)cc1 (stereo unspecified)		0	
CCc1cccc2ccn(CC(O)CSc3cc(C)cc(C)c3)c12 (stereo unspecified)	40	90	71
OC(CSc1nnnn1-c1ccccc1)Cn1c2ccccc2c2ccccc21 (stereo unspecified)		64	
CCc1cccc2ccn(CC(O)CSc3ccccc3O)c12 (stereo unspecified)		32	
COc1ccc(SCC(O)CN(Cc2ccccc2)Cc2ccccc2)c(OC)c1 (stereo unspecified)		34	

SMILES	inhibition (Beta-secretase 1 [1]) [%]	inhibition (Beta-secretase 1 [2]) [%]	inhibition (Beta-secretase 1 [3]) [%]
OC(CSc1ccccc1)CN(Cc1ccccc1)Cc1ccccc1 (stereo unspecified)		0	
CCc1cccc2ccn(CC(O)CSCCCc3ccccc3)c12 (stereo unspecified)		0	
OC(COc1ccc(Cc2ccccc2)cc1)CSc1nnnn1-c1ccccc1 (stereo unspecified)		62	
CCc1ccc(SCC(O)Cn2ccc3ccccc32)cc1 (stereo unspecified)		72	
COc1ccc(SCC(O)CN2CCc3cc(OC)c(OC)cc3C2c2ccccc2)cc1 (stereo unspecified)		20	
COc1cc2c(cc1OC)C(c1ccccc1)N(CC(O)CSc1ccc(F)cc1)CC2 (stereo unspecified)		15	
Nc1cccc(SCC(O)Cn2c(-c3ccccc3)cc3ccccc32)c1 (stereo unspecified)		73	
OC(CSc1ccccc1F)CN(Cc1ccccc1)Cc1ccccc1 (stereo unspecified)		1	
Cc1c(C)n(CC(O)CSc2ccccc2)c2ccccc12 (stereo unspecified)		69	
COc1cc2c(cc1OC)C(c1ccccc1)N(CC(O)CSc1ccccc1F)CC2 (stereo unspecified)		23	
CCc1ccccc1SCC(O)CN1CCc2cc(OC)c(OC)cc2C1c1ccccc1 (stereo unspecified)		1	
COc1ccc(SCC(O)Cn2ccc3ccccc32)c(OC)c1 (stereo unspecified)	43	84	76
CCc1ccccc1SCC(O)CN1CCC(C(O)(c2ccccc2)c2ccccc2)CC1 (stereo unspecified)		3	
CCc1ccccc1SCC(O)CN(Cc1ccccc1)Cc1ccccc1 (stereo unspecified)		54	
OC(CSc1ccc2ccccc2c1)CN1CCCCCC1 (stereo unspecified)		0	
COc1ccc(SCC(O)Cn2c3c(c4ccccc42)CCC3)cc1 (stereo unspecified)	27	85	74
CCc1ccc(SCC(O)COc2ccc(Cc3ccccc3)cc2)cc1 (stereo unspecified)		69	
Cc1cc(C)cc(SCC(O)CN2CCCCCC2)c1 (stereo unspecified)		15	
OC(CSc1ccc2ccccc2c1)Cn1c2c(c3ccccc31)CCC2 (stereo unspecified)	43	87	80
COc1cc2c(cc1OC)C(c1ccccc1)N(CC(O)CSc1ccc(Cl)cc1)CC2 (stereo unspecified)		3	
COc1ccc(SCC(O)COc2ccc(-c3ccccc3)cc2)cc1 (stereo unspecified)		45	
Cc1c(C)n(CC(O)CSc2nnnn2-c2ccccc2)c2ccccc12 (stereo unspecified)	31	93	64
COc1ccc(SCC(O)COc2ccc(Cc3ccccc3)cc2)c(OC)c1 (stereo unspecified)		67	
OC(COc1ccc(Cc2ccccc2)cc1)CSc1ccc(F)cc1 (stereo unspecified)		62	
Cc1cc(C)cc(SCC(O)COc2ccc(Cc3ccccc3)cc2)c1 (stereo unspecified)		71	
Oc1ccccc1SCC(O)COc1ccc(Cc2ccccc2)cc1 (stereo unspecified)	90	84	101

SMILES	inhibition (Beta-secretase 1 [1]) [%]	inhibition (Beta-secretase 1 [2]) [%]	inhibition (Beta-secretase 1 [3]) [%]
OC(CSc1nnnn1-c1ccccc1)Cn1ccc2ccccc21 (stereo unspecified)		58	
OC(CSc1ccc(Cl)cc1)CN1CCC(C(O)(c2ccccc2)c2ccccc2)CC1 (stereo unspecified)		10	
COc1ccc(SCC(O)CN2CCC(C(O)(c3ccccc3)c3ccccc3)CC2)c(OC)c1 (stereo unspecified)		0	
Cc1c(C)n(CC(O)CSc2ccc(O)cc2)c2ccccc12 (stereo unspecified)		75	
Cc1c(C)n(CC(O)CSc2ccccc2Cl)c2ccccc12 (stereo unspecified)	68	100	93
OC(CSc1ccccc1Cl)CN(Cc1ccccc1)Cc1ccccc1 (stereo unspecified)		45	
OC(CSc1ccc(F)cc1)Cn1c2c(c3ccccc31)CCCC2 (stereo unspecified)	56	87	92
OC(CSc1ccc(Cl)cc1)CN(Cc1ccccc1)Cc1ccccc1 (stereo unspecified)		24	
CCc1cccc2ccn(CC(O)CSc3ccc(F)cc3)c12 (stereo unspecified)	48	86	41
OC(CSc1ccc(Cl)cc1)CN1CCCCCC1 (stereo unspecified)		0	
COc1cc2c(cc1OC)C(c1ccccc1)N(CC(O)CSc1ccc(C)cc1)CC2 (stereo unspecified)		11	
Cc1c(C)n(CC(O)CSc2ccccc2O)c2ccccc12 (stereo unspecified)		61	
OC(CSc1ccccc1)CN1CCC(C(O)(c2ccccc2)c2ccccc2)CC1 (stereo unspecified)		2	
COc1ccc(SCC(O)CN2CCc3cc(OC)c(OC)cc3C2c2ccccc2)c(OC)c1 (stereo unspecified)		24	
Cc1ccc(SCC(O)COc2ccc(-c3ccccc3)cc2)cc1 (stereo unspecified)		27	
Cc1cc(C)cc(SCC(O)CN(Cc2ccccc2)Cc2ccccc2)c1 (stereo unspecified)		38	
COc1ccc(SCC(O)COc2ccc(-c3ccccc3)cc2)c(OC)c1 (stereo unspecified)		74	
COc1ccc(SCC(O)Cn2c(-c3ccccc3)cc3ccccc32)c(OC)c1 (stereo unspecified)	21	77	42
OC(CSc1nnnn1-c1ccccc1)CN1CCCCCC1 (stereo unspecified)		0	
COc1ccc(SCC(O)Cn2c(C)c(C)c3ccccc32)cc1 (stereo unspecified)	26	96	70
CCc1cccc2ccn(CC(O)CSc3ccc(OC)cc3)c12 (stereo unspecified)	11	83	54
OC(COc1ccc(-c2ccccc2)cc1)CSc1nnnn1-c1ccccc1 (stereo unspecified)		71	
OC(COc1ccc(Cc2ccccc2)cc1)CSc1ccccc1F (stereo unspecified)		64	
Cc1ccc(SCC(O)Cn2c3c(c4ccccc42)CCC3)cc1 (stereo unspecified)	55	91	81
Cc1ccccc1SCC(O)CN1CCC(C(O)(c2ccccc2)c2ccccc2)CC1 (stereo unspecified)		5	
Cc1ccc(SCC(O)Cn2c(-c3ccccc3)cc3ccccc32)cc1 (stereo unspecified)	45	76	65

SMILES	inhibition (Beta-secretase 1 [1]) [%]	inhibition (Beta-secretase 1 [2]) [%]	inhibition (Beta-secretase 1 [3]) [%]
OC(COc1ccc(Cc2ccccc2)cc1)CSc1ccc(Cl)cc1 (stereo unspecified)		63	
Cc1ccccc1SCC(O)Cn1c(-c2ccccc2)cc2ccccc21 (stereo unspecified)		67	
OC(CSc1ccccc1Cl)CN1CCC(C(O)(c2ccccc2)c2ccccc2)CC1 (stereo unspecified)		5	
COc1ccc(SCC(O)Cn2c(-c3ccccc3)cc3ccccc32)cc1 (stereo unspecified)		70	
COc1cc2c(cc1OC)C(c1ccccc1)N(CC(O)CSc1nnnn1-c1ccccc1)CC2 (stereo unspecified)		45	
OC(CSc1ccc(F)cc1)CN1CCCCCC1 (stereo unspecified)		10	
OC(CSc1nnnn1-c1ccccc1)CN(Cc1ccccc1)Cc1ccccc1 (stereo unspecified)		0	
Oc1ccc(SCC(O)CN2CCC(C(O)(c3ccccc3)c3ccccc3)CC2)cc1 (stereo unspecified)		0	
CCc1cccc2ccn(CC(O)CSc3nnnn3-c3ccccc3)c12 (stereo unspecified)		86	46
OC(CSc1ccc(Cl)cc1)Cn1c(-c2ccccc2)cc2ccccc21 (stereo unspecified)	56	82	69
OC(CSc1ccc2ccccc2c1)CN1CCC(C(O)(c2ccccc2)c2ccccc2)CC1 (stereo unspecified)		0	
OC(CSc1ccccc1F)Cn1c2c(c3ccccc31)CCC2 (stereo unspecified)	51	94	82
Cc1ccc(SCC(O)CN2CCC(C(O)(c3ccccc3)c3ccccc3)CC2)cc1 (stereo unspecified)		1	
Oc1ccc(SCC(O)COc2ccc(-c3ccccc3)cc2)cc1 (stereo unspecified)		17	
COc1ccc(SCC(O)Cn2c3c(c4ccccc42)CCC3)c(OC)c1 (stereo unspecified)		75	
OC(CSc1nnnn1-c1ccccc1)CN1CCC(C(O)(c2ccccc2)c2ccccc2)CC1 (stereo unspecified)		1	
COc1cc2c(cc1OC)C(c1ccccc1)N(CC(O)CSc1cc(C)cc(C)c1)CC2 (stereo unspecified)		15	
CCc1cccc2ccn(CC(O)CSc3ccc(OC)cc3OC)c12 (stereo unspecified)		69	
CCc1ccccc1SCC(O)COc1ccc(Cc2ccccc2)cc1 (stereo unspecified)		71	
COc1cc2c(cc1OC)C(c1ccccc1)N(CC(O)CSc1ccccc1C)CC2 (stereo unspecified)		24	
OC(CSCCCc1ccccc1)CN(Cc1ccccc1)Cc1ccccc1 (stereo unspecified)		16	
Oc1ccccc1SCC(O)COc1ccc(-c2ccccc2)cc1 (stereo unspecified)		33	
Cc1cc(C)cc(SCC(O)CN2CCC(C(O)(c3ccccc3)c3ccccc3)CC2)c1 (stereo unspecified)		0	
OC(CSc1ccc(F)cc1)CN(Cc1ccccc1)Cc1ccccc1 (stereo unspecified)		2	

Source: ChEMBL document CHEMBL2057073, “Synthesis and structure-activity relationship studies of 1,3-disubstituted 2-propanols as BACE-1 inhibitors” (Bioorg Med Chem Lett, 2012)
